In brackets after ≈: the same amount, converted by molar mass.
Key:
Type in all cases: cell-based
[1] = system: Plasmodium falciparum, chloroquine-sensitive strain NF54; assay: activity against P. falciparum in vitro, strain NF54; settings: Plasmodium falciparum; chloroquine-sensitive strain NF54; 48 h-72 h; read-out: IC50 (50% growth inhibition)
Experimental: (§1) Test method for the determination of the activity against P. falciparum in vitro
(§2) The preparations of the present invention were tested on intraerythrocytary stages of P. falciparum from asynchronous cultures according to the method of Desjardin et al. (Desjardins, R. E. et al: Quantitative assessment of antimalarial activity in vitro by a semiautomated microdilution technique. Antimicrob. Agents Chemother. 16, 710-718, (1979)).
(§3) The culture medium consisted of RPMI 1640 with the addition of 25 mM HEPES, 25 mM NaHCO3, […] neomycin and 10% human serum (A^+). Human-A^+ erythrocytes were used as the P. falciparum host cells. The parasites were maintained at 37° C. in an atmosphere of 3% O2, 4% CO2, 93% N2 and at 95% relative humidity.
(§4) In order to determine the activity, the preparations were dissolved in DMSO, pre-diluted in the culture medium to a suitable starting concentration and subsequently titrated-out into microtitre plates in the 2nd stage over 6-7 steps. After the addition of the parasite culture (0.7% parasitemia in 2.5% erythrocyte suspension), the test plates were incubated under the conditions given above for 48 h-72 h. The parasite growth in the different preparation concentrations was determined using [G-^3 H]-hypoxanthin incorporation compared to untreated control cultures on the same test plates. The 50% growth inhibition (IC50) was calculated according to logit regression analysis from the resulting dosage-activity curve.
(§5) The preparations were tested on at least one chloroquine-resistant and one chloroquine-sensitive P. falciparum strain. Additional sensitive and resistant strains were also included for further characterization.
(§6) Table 1 below contains the IC50 values measured in vitro for the growth inhibition of chloroquine-sensitive and chloroquine-resistant strains of the human pathogenic Plasmodium falciparum.

[2] = system: Plasmodium falciparum, chloroquine-sensitive strain FCH5C2; assay: activity against P. falciparum in vitro, strain FCH5C2; settings: chloroquine-sensitive strain FCH5C2, 48 h-72 h, read-out: IC50 (50% growth inhibition)
Experimental: as §1, §2, §3, §4, §5, §6

[3] = system: Plasmodium falciparum, chloroquine-sensitive strain HB3; assay: activity against P. falciparum in vitro, strain HB3; settings: chloroquine-sensitive strain HB3, 48 h-72 h, read-out: IC50 (50% growth inhibition)
Experimental: as §1, §2, §3, §4, §5, §6

[4] = system: Plasmodium falciparum, chloroquine-sensitive strain RFMEF3; assay: activity against P. falciparum in vitro, strain RFMEF3; settings: chloroquine-sensitive strain RFMEF3, 48 h-72 h, read-out: IC50 (50% growth inhibition)
Experimental: as §1, §2, §3, §4, §5, §6

[5] = system: Plasmodium falciparum, chloroquine-sensitive strain Ro7 3; assay: activity against P. falciparum in vitro, strain Ro7 3; settings: chloroquine-sensitive strain Ro7 3, 48 h-72 h, read-out: IC50 (50% growth inhibition)
Experimental: as §1, §2, §3, §4, §5, §6

[6] = system: Plasmodium falciparum, chloroquine-resistant strain RFCR3; assay: activity against P. falciparum in vitro, strain RFCR3; settings: chloroquine-resistant strain RFCR3, 48 h-72 h, read-out: IC50 (50% growth inhibition)
Experimental: as §1, §2, §3, §4, §5, §6

[7] = system: Plasmodium falciparum, chloroquine-resistant strain ItG2 F6; assay: activity against P. falciparum in vitro, strain ItG2 F6; settings: chloroquine-resistant strain ItG2 F6, 48 h-72 h, read-out: IC50 (50% growth inhibition)
Experimental: as §1, §2, §3, §4, §5, §6

[8] = system: Plasmodium falciparum, chloroquine-resistant strain Indo; assay: activity against P. falciparum in vitro, strain Indo; settings: chloroquine-resistant strain Indo, 48 h-72 h, read-out: IC50 (50% growth inhibition)
Experimental: as §1, §2, §3, §4, §5, §6

[9] = system: Plasmodium falciparum, chloroquine-resistant strain K1; assay: activity against P. falciparum in vitro, strain K1; settings: Plasmodium falciparum; chloroquine-resistant strain K1; 48 h-72 h; read-out: IC50 (50% growth inhibition)
Experimental: as §1, §2, §3, §4, §5, §6

[10] = system: Plasmodium falciparum, chloroquine-resistant strain W2; assay: activity against P. falciparum in vitro, strain W2; settings: chloroquine-resistant strain W2, 48 h-72 h, read-out: IC50 (50% growth inhibition)
Experimental: as §1, §2, §3, §4, §5, §6

[11] = system: Plasmodium falciparum, chloroquine-resistant strain 7G8; assay: activity against P. falciparum in vitro, strain 7G8; settings: chloroquine-resistant strain 7G8, 48 h-72 h, read-out: IC50 (50% growth inhibition)
Experimental: as §1, §2, §3, §4, §5, §6

[12] = system: Plasmodium falciparum, chloroquine-resistant strain W2 Mef; assay: activity against P. falciparum in vitro, strain W2 Mef; settings: 48 h-72 h, read-out: IC50 (50% growth inhibition)
Experimental: as §1, §2, §3, §4, §5, §6

Compound | IC50 [1] | IC50 [2] | IC50 [3] | IC50 [4] | IC50 [5] | IC50 [6] | IC50 [7] | IC50 [8] | IC50 [9] | IC50 [10] | IC50 [11] | IC50 [12]
CC(C)(CN1CCCC1)Nc1ccnc2cc(Cl)ccc12 [Example 13, (7-Chloro-quinolin-4-yl)-(1,1-dimethyl-2-pyrrolidin-1-yl-ethyl)-amine] | 0.03 mg/L (≈ 0.0987 µM) | 0.028 mg/L (≈ 0.0922 µM) | 0.038 mg/L (≈ 0.125 µM) | 0.027 mg/L (≈ 0.0889 µM) | 0.03 mg/L (≈ 0.0987 µM) | 0.058 mg/L (≈ 0.191 µM) | 0.025 mg/L (≈ 0.0823 µM) | 0.04 mg/L (≈ 0.132 µM) | 0.047 mg/L (≈ 0.155 µM) | 0.034 mg/L (≈ 0.112 µM) | 0.039 mg/L (≈ 0.128 µM) | 0.041 mg/L (≈ 0.135 µM)
CC(C)(CN1CCCCC1)Nc1ccnc2cc(Cl)ccc12 [Example 14, (7-Chloro-quinolin-4-yl)-(1,1-dimethyl-2-piperidin-1-yl-ethyl)-amine] | 0.009 mg/L (≈ 0.0283 µM) | 0.008 mg/L (≈ 0.0252 µM) | 0.009 mg/L (≈ 0.0283 µM) | 0.006 mg/L (≈ 0.0189 µM) | 0.004 mg/L (≈ 0.0126 µM) | 0.008 mg/L (≈ 0.0252 µM) | 0.006 mg/L (≈ 0.0189 µM) | 0.01 mg/L (≈ 0.0315 µM) | 0.021 mg/L (≈ 0.0661 µM) | 0.02 mg/L (≈ 0.0629 µM) | 0.007 mg/L (≈ 0.022 µM) | 0.014 mg/L (≈ 0.044 µM)
CN(C)CCNc1ccnc2cc(C(F)(F)F)ccc12 [Example 22, N1,N1 -Dimethyl-N2-(7trifluoromethyl-quinolin-4-yl)-ethane-1,2-diamine] | 0.014 mg/L (≈ 0.0494 µM) | 0.017 mg/L (≈ 0.06 µM) | 0.02 mg/L (≈ 0.0706 µM) | 0.018 mg/L (≈ 0.0635 µM) | 0.011 mg/L (≈ 0.0388 µM) | 0.02 mg/L (≈ 0.0706 µM) | 0.014 mg/L (≈ 0.0494 µM) | 0.016 mg/L (≈ 0.0565 µM) | 0.022 mg/L (≈ 0.0777 µM) | 0.011 mg/L (≈ 0.0388 µM) | 0.029 mg/L (≈ 0.102 µM) | 0.023 mg/L (≈ 0.0812 µM)
CC1CCN(CCNc2ccnc3cc(Cl)ccc23)CC1 [Example 24, (7-Chloro-quinolin-4-yl)-[2-(4-methyl-piperidin-1-yl)-ethyl]-amine] | 0.007 mg/L (≈ 0.023 µM) | 0.007 mg/L (≈ 0.023 µM) | 0.007 mg/L (≈ 0.023 µM) | 0.007 mg/L (≈ 0.023 µM) | 0.004 mg/L (≈ 0.0132 µM) | 0.009 mg/L (≈ 0.0296 µM) | 0.006 mg/L (≈ 0.0197 µM) | 0.008 mg/L (≈ 0.0263 µM) | 0.015 mg/L (≈ 0.0494 µM) | 0.015 mg/L (≈ 0.0494 µM) | 0.007 mg/L (≈ 0.023 µM) | 0.009 mg/L (≈ 0.0296 µM)
CC1(C)CCCN(CCNc2ccnc3cc(Cl)ccc23)C1 [Example 25, (7-Chloro-quinolin-4-yl)-[2-(3,3-dimethyl-piperidin-1-yl)-ethyl]-amine] | 0.008 mg/L (≈ 0.0252 µM) | 0.008 mg/L (≈ 0.0252 µM) | 0.01 mg/L (≈ 0.0315 µM) | 0.008 mg/L (≈ 0.0252 µM) | 0.005 mg/L (≈ 0.0157 µM) | 0.014 mg/L (≈ 0.044 µM) | 0.008 mg/L (≈ 0.0252 µM) | 0.015 mg/L (≈ 0.0472 µM) | 0.022 mg/L (≈ 0.0692 µM) | 0.026 mg/L (≈ 0.0818 µM) | 0.011 mg/L (≈ 0.0346 µM) | 0.016 mg/L (≈ 0.0503 µM)
C[C@@H]1CCC[C@H](C)N1CCNc1ccnc2cc(Cl)ccc12 [Example 28, (2R,6S)-(7-Chloro-quinolin-4-yl)-[2-(2,6-dimethyl-piperidin-1-yl)-ethyl]-amine] | 0.007 mg/L (≈ 0.022 µM) | 0.014 mg/L (≈ 0.044 µM) | 0.011 mg/L (≈ 0.0346 µM) | 0.009 mg/L (≈ 0.0283 µM) | 0.005 mg/L (≈ 0.0157 µM) | 0.016 mg/L (≈ 0.0503 µM) | 0.006 mg/L (≈ 0.0189 µM) | 0.009 mg/L (≈ 0.0283 µM) | 0.016 mg/L (≈ 0.0503 µM) | 0.018 mg/L (≈ 0.0566 µM) | 0.009 mg/L (≈ 0.0283 µM) | 0.015 mg/L (≈ 0.0472 µM)
CC1CC(C)CN(CCNc2ccnc3cc(Cl)ccc23)C1 (stereo not drawn) [Example 29, (7-Chloro-quinolin-4-yl)-[2-(3,5-dimethyl-piperidin-1-yl)-ethyl]-amine] | 0.006 mg/L (≈ 0.0189 µM) | 0.006 mg/L (≈ 0.0189 µM) | 0.007 mg/L (≈ 0.022 µM) | 0.005 mg/L (≈ 0.0157 µM) | 0.003 mg/L (≈ 0.00944 µM) | 0.011 mg/L (≈ 0.0346 µM) | 0.006 mg/L (≈ 0.0189 µM) | 0.007 mg/L (≈ 0.022 µM) | 0.016 mg/L (≈ 0.0503 µM) | 0.015 mg/L (≈ 0.0472 µM) | 0.005 mg/L (≈ 0.0157 µM) | 0.011 mg/L (≈ 0.0346 µM)
CC1CCC(C)N1CCNc1ccnc2cc(Cl)ccc12 (stereo not drawn) [Example 30, (7-Chloro-quinolin-4-yl)-[2-(2,5-dimethyl-pyrrolidin-1-yl)-ethyl]-amine] | 0.007 mg/L (≈ 0.023 µM) | 0.009 mg/L (≈ 0.0296 µM) | 0.01 mg/L (≈ 0.0329 µM) | 0.008 mg/L (≈ 0.0263 µM) | 0.011 mg/L (≈ 0.0362 µM) | 0.016 mg/L (≈ 0.0527 µM) | 0.007 mg/L (≈ 0.023 µM) | 0.007 mg/L (≈ 0.023 µM) | 0.014 mg/L (≈ 0.0461 µM) | 0.015 mg/L (≈ 0.0494 µM) | 0.015 mg/L (≈ 0.0494 µM) | 0.008 mg/L (≈ 0.0263 µM)
